Measured values published in the supplement of paper PMC10307832.

What was measured:
Test in all cases: relative viability (nuclei count vs DMSO), 5 days (fraction); higher = more cells survive
[1] = compound: CCN1C(=O)C2=CC(=C(N=C2N(C1=O)C3CC3)N)C(=O)N + CC(=O)Nc1cccc(-n2c(=O)n(C3CC3)c(=O)c3c(Nc4ccc(I)cc4F)n(C)c(=O)c(C)c32)c1 [Trametinib] (partner 0.02 µM)
Summary of the method: (§1)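 Dosing by pin tool came one day after lung cancer cell lines were seeded in 1536-well plates, using either one drug or a fixed anchor-drug dose plus five library-drug doses (not always all listed) in √10 steps. After 5 days, nuclei were counted on 4× images. Relative viability is treated-well nuclei count divided by vehicle-well nuclei count, and values are medians of duplicate plates.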

[2] = compound: CCN1C(=O)C2=CC(=C(N=C2N(C1=O)C3CC3)N)C(=O)N + CC(=O)c1c(C)c2cnc(Nc3ccc(N4CCNCC4)cn3)nc2n(C2CCCC2)c1=O [Palbociclib] (partner 0.5 µM)
Summary of the method: as §1

[3] = compound: CCN1C(=O)C2=CC(=C(N=C2N(C1=O)C3CC3)N)C(=O)N + Cc1cc(Nc2cc(N3CCN(C)CC3)nc(Sc3ccc(NC(=O)C4CC4)cc3)n2)n[nH]1 [Tozasertib] (partner 0.1 µM)
Summary of the method: as §1

[4] = compound: CCN1C(=O)C2=CC(=C(N=C2N(C1=O)C3CC3)N)C(=O)N + Cc1nc(Nc2ncc(C(=O)Nc3c(C)cccc3Cl)s2)cc(N2CCN(CCO)CC2)n1 [Dasatinib] (partner 0.075 µM)
Summary of the method: as §1

[5] = compound: CCN1C(=O)C2=CC(=C(N=C2N(C1=O)C3CC3)N)C(=O)N + NC(=O)Nc1cc(-c2cccc(F)c2)sc1C(=O)N[C@H]1CCCNC1 [AZD7762] (partner 0.2 µM)
Summary of the method: as §1

Cell Line | relative viability ([1]; first compound 0.253 µM) | relative viability ([1]; first compound 0.8 µM) | relative viability ([1]; first compound 2.53 µM) | relative viability ([1]; first compound 8 µM) | relative viability ([2]; first compound 0.253 µM) | relative viability ([2]; first compound 0.8 µM) | relative viability ([2]; first compound 2.53 µM) | relative viability ([2]; first compound 8 µM) | relative viability ([3]; first compound 0.253 µM) | relative viability ([3]; first compound 0.8 µM) | relative viability ([3]; first compound 2.53 µM) | relative viability ([3]; first compound 8 µM) | relative viability ([4]; first compound 0.253 µM) | relative viability ([4]; first compound 0.8 µM) | relative viability ([4]; first compound 2.53 µM) | relative viability ([4]; first compound 8 µM) | relative viability ([5]; first compound 0.253 µM) | relative viability ([5]; first compound 0.8 µM) | relative viability ([5]; first compound 2.53 µM) | relative viability ([5]; first compound 8 µM)
201T | 0.744 | 0.702 | 0.686 | 0.724 | 0.392 | 0.348 | 0.38 | 0.369 | 1.01 | 0.993 | 0.973 | 1.04 | 0.559 | 0.518 | 0.574 | 0.496 | 0.609 | 0.677 | 0.64 | 0.615
NCI-H3122 | 0.224 | 0.21 | 0.266 | 0.224 | 0.183 | 0.182 | 0.152 | 0.209 | 0.393 | 0.369 | 0.376 | 0.533 | 0.772 | 0.803 | 0.81 | 0.788 | 0.922 | 0.967 | 1.02 | 0.983
NCI-H838 | 0.55 | 0.573 | 0.511 | 0.474 | 0.251 | 0.216 | 0.215 | 0.213 | 0.258 | 0.203 | 0.28 | 0.234 | 0.29 | 0.296 | 0.316 | 0.265 | 0.908 | 0.951 | 0.961 | 0.908
NCI-H441 | 0.508 | 0.441 | 0.516 | 0.532 | 0.22 | 0.231 | 0.224 | 0.244 | 0.619 | 0.571 | 0.54 | 0.458 | 0.734 | 0.585 | 0.728 | 0.683 | 0.892 | 1.29 | 1.2 | 1.1
HOP-62 | 0.312 | 0.376 | 0.333 | 0.416 | 0.516 | 0.428 | 0.415 | 0.474 | 0.367 | 0.353 | 0.382 | 0.371 | 0.715 | 0.614 | 0.695 | 0.598 | 0.727 | 0.566 | 0.617 | 0.899
SW 1573 | 0.548 | 0.601 | 0.599 | 0.52 | 0.39 | 0.384 | 0.399 | 0.451 | 0.172 | 0.174 | 0.142 | 0.219 | 0.564 | 0.411 | 0.483 | 0.464 | – | – | – | –
HCC-44 | 1.18 | 0.975 | 1.06 | 1.04 | 0.998 | 0.912 | 0.972 | 1 | 0.634 | 0.965 | 0.789 | 0.875 | – | – | – | – | 1.03 | 0.993 | 0.977 | 0.991
UMC-11 | 0.798 | 0.701 | 0.695 | 0.636 | 0.333 | 0.336 | 0.336 | 0.279 | 0.2 | 0.213 | 0.188 | 0.206 | 0.463 | 0.434 | 0.485 | 0.496 | – | – | – | –
NCI-H1703 | – | – | – | – | – | – | – | – | – | – | – | – | – | – | – | – | 0.13 | 0.126 | 0.164 | 0.137
